The values below come from patent US6413934B1, “Streptavidin mutants having secondary functional domains” (University of Washington, priority 1998, dated 2002).

Where two headings read alike, the source gives them in different places.

Experiment [1] in a line: off-rate measurement with tritiated biotin. Format: binding. The following applies: 25° C., PBS pH 7.0. How it is done: Since the mutations occur in a loop opposite from the biotin binding pocket, the rational design of the molecule should obviate any effect of reducing the off-rate, or dissociation constant of streptavidin. This indeed was observed by experimental koff values for the RGD mutants that are within the standard deviation of previously calculated values for wild type streptavidin. Off-rate measurements were performed at 25° C. to quantitatively characterize the biotin affinity of the mutants and compare the results of the binding affinity of wild type streptavidin. Tritiated biotin, “hot” because it is radioactively labeled, was added to samples of the mutant proteins in a PBS solution, pH 7.0, and allowed to equilibrate for 1 to 2 hours. The off-rate reaction was then initiated by the addition of 5 μL of 15 mM “cold” biotin (non-radioactive) in PBS. As the tritiated biotin dissociated from the streptavidin mutants, aliquots were taken at fixed times and scintillation counts were performed to analyze the beta emission of the tritiated biotin. The natural logarithm of the bound tritiated fractions was plotted versus time to attain the off-rate koff, which is calculated from a linear regression of the data points.

Experiment [2] relates to Rat aortic endothelial cells. Nature of the experiment: endothelial cell adhesion assay on streptavidin-coated wells. The format is cell-based. Here is the method:
Rat aortic endothelial cells were cultured in MDCB 131 media (Gibco BRL) with fetal bovine serum and used in the cell adhesion assays. Wild type and RGD streptavidin mutants were incubated in 96 well polystyrene plates overnight at 4° C. at various concentrations and then blocked with 1% BSA in PBS for 1 hour at 37° C. prior to the plating of cells (n=3). Alternatively, biotinylated BSA was incubated in the 96 wells overnight at 4° C., blocked with 1% BSA in PBS for one hour at 37° C., and then streptavidin (wild type or RGD) was incubated in the wells for one hour at 37° C. The protein solution was aspirated and the wells rinsed with sterile PBS before 50,000 cells were plated onto the protein coated wells for one hour at 37° C. The media was removed and the wells were rinsed twice with warm PBS (37° C.). The adherent cells were fixed with 4% paraformaldehyde (PFA) for 5 minutes and stained with 0.5% toluidine blue in 4% PFA for another 5 minutes at room temperature before the wells were rinsed by immersing the plate into a large bowl of tap water. The plate was dried by blotting the inverted plate onto paper towels and the remaining dye in the wells was solubilized with 1% SDS prior to reading the absorbance of the wells with a plate reader at 595 nm.

Experiment [3] has as its system Rat aortic endothelial cells. Nature of the experiment: peptide inhibition of endothelial cell adhesion to FN-SA and OSTP-SA. The format is cell-based. The following applies: for inhibitory effect on cell adhesion: soluble peptide preincubated with cells 15 minutes. Here is the method:
To confirm that the observed cell adhesion was directly RGD dependent, inhibition studies were conducted with GRGDSP (amino acids 89 to 94 of SEQ ID NO:2), GRGESP (SEQ ID NO:8), and GRADSP (SEQ ID NO:9) peptides.
Synthetic hexapeptides GRGDSP (amino acids 89 to 94 of SEQ ID NO:2), GRGESP (SEQ ID NO:8), and GRADSP (SEQ ID NO:9) were purchased from Gibco BRL. The inhibition assay was performed with the same protocol as for the cell adhesion assay except that the cells were incubated with the peptides for 15 minutes at room temperature prior to being plated onto the protein-coated wells.

Experiment [4] concerns αvβ3 integrin present on the melanoma cells. Nature of the experiment: peptide and antibody inhibition of melanoma cell adhesion to RGD streptavidin mutants. The following applies: human melanoma cells; antibodies at 10 μg/ml. Format: cell-based. How it is done:
Melanoma cell adhesion assays on streptavidin coated polystyrene dishes were performed as described above for endothelial cell adhesion assays, except that DMEM with 0.1% BSA and 10 mM HEPES was used as culture medium and 2×10^5 cells were added to each well. Moαv cells that express high levels of αvβ3 integrin were derived from M21 melanoma cells. Adhesion assays were performed on self assembled monolayers constructed on 24 well tissue culture polystyrene dishes. The dishes were evaporated with about 400A gold, then incubated with a 0.1 mM ethanolic thiol solution of 20% biotinylated alkylthiol (BAT) and 80% polyethylene glycol (PEG) overnight. The wells were rinsed three times with 100% ethanol, blown dry with nitrogen, then incubated with 0.05 mg/ml of streptavidin in PBS (wild type or mutant) at 37° C. for one hour with side to side rocking. The protein solution was then removed, and the wells were rinsed three times with PBS before addition of cells. Antibody inhibition assays were performed essentially identically as for the RGD/RGE inhibition assays. LM609 and control were obtained from Chemicon International, Inc. (Calif.) and were used at 1:1000 dilution (10 μg/ml).

Experiment [5] deals with integrin receptors (on rat aortic endothelial cells). Nature of the experiment: cell-based or functional assay.

“Wild type streptavidin: naturally occurring tetrameric biotin-binding protein of Streptomyces avidinii, SEQ ID NO:1”: the koff in experiment [1] is reported as 3.3±0.1×10^−6 /sec. Moreover, the “cell adhesion (absorbance at 595 nm, visual inspection)” value in experiment [2] is reported as “does not display any cell adhesion above control levels”; in experiment [2] (listed as wild type), “comparable to those for 1% SDS”.

GRGDSP [RGD peptide]: the “inhibitory effect on cell adhesion at 100 μm peptide” value in experiment [3] (100 μM peptide) is given as “inhibited cell adhesion”. Moreover, the “inhibitory effect on cell adhesion” value in experiment [3] was “inhibited cell adhesion in a dose-dependent manner”. Moreover, in experiment [4], the “inhibition of cell adhesive activity of the RGD mutants” value is given as “can be inhibited”.

GRGESP: the “inhibitory effect on cell adhesion” value in experiment [3] is “no noticeable inhibitory effect”.

GRADSP: the “inhibitory effect on cell adhesion” value in experiment [3] is listed as “no noticeable inhibitory effect”.

Consider “Fibronectin Streptavidin (streptavidin having incorporated therein RGD with flanking amino acids as in fibronectin) (designed binder)”, for which, in experiment [5], the absorbance at 595 nm (adhered rat aortic endothelial cells) (absorbance at 595 nm) came to 0.3 and the coating concentration at saturation of cell adhesion was 100 nM.

As for “Osteopontin Streptavidin (streptavidin having incorporated therein RGD with flanking amino acids as in osteopontin) (designed binder)”, in experiment [5], the absorbance at 595 nm (adhered rat aortic endothelial cells) (absorbance at 595 nm) was 0.3 and the coating concentration at saturation of cell adhesion stood at 100 nM.

B1: FN-SA: streptavidin mutant incorporating the RGD sequence and flanking residues from fibronectin, SEQ ID NO:2 (protein)
chain: MRKIVVAAIAVSLTTVSITASASADPSKDSKAQVSAAEAGITGTWYNQLGSTFIVTAGADGALTGTYESAVGNAESRYVLTGRYDSAPGRGDSPGSGTALGWTVAWKNNYRNAHSATTWSGQYVGGAEARINTQWLLTSGTTEANAWKSTLVEHDTFTKVKPSAASIDAAKKAGVNNGNPLDAVQQ
In experiment [1], B1 had an off-rate constant (koff) of 3.28e-06 s⁻¹.

B2: OSTP-SA: streptavidin mutant incorporating the RGD sequence and flanking residues from osteopontin, SEQ ID NO:3 (protein)
chain: MRKIVVAAIAVSLTTVSITASASADPSKDSKAQVSAAEAGITGTWYNQLGSTFIVTAGADGALTGTYESAVGNAESRYVLTGRYDSAPGRGDSVGSGTALGWTVAWKNNYRNAHSATTWSGQYVGGAEARINTQWLLTSGTTEANAWKSTLVEHDTFTKVKPSAASIDAAKKAGVNNGNPLDAVQQ
On to B2, for which the koff in experiment [1] is 3.13e-06 s⁻¹.
